According to patent US20120083471A1, “Novel Compounds, Pharmaceutical Compositions Containing Same, Methods of Use for Same, and Methods for Preparing Same” (priority 2008, published 2012):
“Also recorded” adds a separate entry of the source.

Legend:
[1] = system: lean mice; experiment: Conditioned taste aversion, two-bottle choice; assay type: in vivo, mouse; settings: 5 mg/kg or 20 mg/kg ip, listed as FSG67
Protocol: Conditioned taste aversion. Ten days before testing, eighteen male C57/BL6 mice were placed on a schedule of 2 h daytime access to water. On the test day, mice were divided into three groups and were given access to 0.15% sodium saccharin rather than water for 30 min. Immediately after saccharin access, mice were injected ip with RPMI vehicle or FSG67 (5 and 20 mg/kg body wt) and were allowed water access for the remaining 90 min. Twenty-four hours later, mice were given 2h access to a two-bottle choice test of 0.15% saccharin vs. water. Intakes of both solutions were recorded, and data were expressed as saccharin preference (100× saccharin intake/saccharin intake+water intake).
GPAT inhibition with FSG67 decreased body weight in DIO mice consuming a high fat diet. FSG67 treated DIO mice lost 4.3±0.5% (1.7±0.2 g) of body mass versus a 5.3±0.4% (2.1±0.2 g) loss for fasted mice (FIG. 11c). Compared to the vehicle control mice which lost 2.5±0.6% (1.0±0.2 g) the weight loss was significant in both the FSG67 treated (p=0.026, 2-tailed t-test) and fasted mice (p=0.002, 2-tailed t-test). […] Thus, the reduction in food intake from FSG67 was not due to sickness behavior (FIG. 11e).

[2] = system: DIO mice; experiment: Chronic 20 d FSG67 treatment of DIO mice, reversibility of weight loss; assay type: in vivo, mouse
Description: DIO and lean mouse models. All animal experimentation was done in accordance with guidelines on animal care and use as established by the Johns Hopkins University School of Medicine IACUC. DIO C57BL6J male mice were obtained from Jackson Laboratory (Bar Harbor, ME) and fed a synthetic diet comprised of 60% calories from fat, 20% from carbohydrate, and 20% from protein (5.2 kcal/g) post-weaning through the experimental procedures (D12492i, Research Diets, Inc., New Brunswick, N.J.). For lean animal studies, twelve-week old C57BL6J male mice (Jackson Laboratory, Bar Harbor, Me.) were fed rodent chow comprised of 13% calories from fat, 58% from carbohydrate, and 29% from protein (4.1 kcal/g) (Prolab RMH 2500, PMI Nutrition International Inc., Brentwood, Mo.). Mice were maintained in 12 hr light-dark cycle at 25° C. for 1 week for acclimatization prior to treatment. In all studies, FSG67 (FASgen, Inc., Baltimore, Md.) was dissolved in RPMI 1640 (Invitrogen, Carlsbad, Calif.).
For acute studies, 6 DIO or lean mice were treated with a single dose of FSG67 (20 mg/kg, i.p.) approximately 3 hrs past lights-on. Animal weights and food consumption were measured 18 h after treatment. Following euthanization, the hypothalmuses were harvested to measure orexigenic and anorexigenic neuropeptide gene expression. In the chronic studies, DIO mice, 4-10 animals per group, were treated daily with FSG67 (5 mg/kg, i.p.) or with RMPI vehicle for the days indicated. Body weight and food intake were measured daily. In one study, a cohort of mice was pair-fed with amounts consumed by the FSG67-treated animals and mice were monitored with indirect calorimetry (Oxymax Equal Flow System®, Columbus Instruments, Columbus, Ohio). Measurements of VO2 (ml/kg/hr) and VCO2 (ml/kg/hr) were performed and recorded every 15 min. The respiratory exchange ratio (RER) was calculated by Oxymax software, version 5.9, and is defined as ratio of VCO2 to VO2 33. After completion of the treatment course, animals were euthanized by CO2 inhalation 4 hrs following the final dose of FSG67. Tissues were harvested immediately for RNA extraction; serum was collected and analyzed for glucose, cholesterol, and triglyceride measurements (Bioanalytics, Gaithersburg, Md.). Fresh liver tissue was snap frozen in liquid N2, sectioned, and stained with hematoxylin and Oil Red O to visualize triglyceride droplets.
The first chronic treatment experiment was designed to test if weight loss induced by FSG67 was reversible. Four DIO mice per group were treated with FSG67 or vehicle for 20 days. For the entire 32 d trial, weight and food consumption were recorded daily until the FSG67 treated animals regained their original weight. During FSG67 treatment (days 0-20), the mice lost 10.3±0.6% of their body mass while controls gained 4.0±0.5% (p<0.0001, 2-way ANOVA) (FIG. 12a). Average food consumption was reduced during FSG67 treatment (2.6±0.1 g/d, days 1-20) compared to vehicle controls (3.1±0.1 g) (p=0.0008, 2-way ANOVA) (FIG. 12b). Following cessation of treatment, food consumption increased in the FSG67 treatment group to an average of 3.5±0.1 g/d (days 21-32) representing a significant increase in food intake compared to vehicle controls 3.2±0.1 g/d (p=0.006, 2-way ANOVA). The FSG67 treated animals achieved their average pre-treatment weight 11 days following termination of treatment (FIG. 12a).

[3] = molecular target: T1, mouse mitochondrial GPAT (Mus musculus, UniProt Q61586); settings: reference 12; read-out: reported IC50 for mouse mitochondrial GPAT activity; cited from earlier work
T1 sequence (Q61586 1-827): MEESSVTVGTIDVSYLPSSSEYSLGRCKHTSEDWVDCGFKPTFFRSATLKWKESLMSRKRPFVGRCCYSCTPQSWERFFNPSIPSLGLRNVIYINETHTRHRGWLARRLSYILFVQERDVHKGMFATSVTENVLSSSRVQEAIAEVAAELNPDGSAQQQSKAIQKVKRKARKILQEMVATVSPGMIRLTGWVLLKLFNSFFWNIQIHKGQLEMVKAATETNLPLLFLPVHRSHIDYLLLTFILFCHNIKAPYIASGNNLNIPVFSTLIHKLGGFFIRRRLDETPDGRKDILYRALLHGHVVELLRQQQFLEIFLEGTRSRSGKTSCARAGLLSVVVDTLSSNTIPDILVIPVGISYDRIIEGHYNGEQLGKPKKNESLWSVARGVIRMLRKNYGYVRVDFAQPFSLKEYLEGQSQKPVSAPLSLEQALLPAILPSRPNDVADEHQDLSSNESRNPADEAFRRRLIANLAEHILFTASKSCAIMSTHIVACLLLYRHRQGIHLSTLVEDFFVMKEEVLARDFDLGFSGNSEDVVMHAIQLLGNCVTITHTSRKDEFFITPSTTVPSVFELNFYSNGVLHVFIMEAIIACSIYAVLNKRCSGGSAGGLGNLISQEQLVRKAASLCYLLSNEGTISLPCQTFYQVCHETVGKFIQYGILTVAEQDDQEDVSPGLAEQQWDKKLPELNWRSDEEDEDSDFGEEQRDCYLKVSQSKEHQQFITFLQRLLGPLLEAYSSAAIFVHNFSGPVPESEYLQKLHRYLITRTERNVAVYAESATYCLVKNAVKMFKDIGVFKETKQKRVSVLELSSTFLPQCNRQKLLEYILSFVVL

## CCCCCCCCCS(=O)(=O)Nc1ccccc1C(=O)O [Compound 15g, 2-(Nonylsulfonamido)benzoic acid]
[1]
  conditioned taste aversion (saccharin intake): failed to produce a significant reduction in saccharin intake; also recorded: did not induce conditioned tasted aversion
[2]
  time to pre-treatment weight following termination of treatment: 11 days
[2]; 5 mg/kg ip daily, 20 d
  body mass lost during treatment: 10.3±0.6%
[2]; 5 mg/kg ip daily, days 1-20
  food consumption during treatment: 2.6 ± 0.1 g/day
[2]; days 21-32
  food consumption following cessation of treatment: 3.5 ± 0.1 g/day
[2]; treatment terminated at day 20
  day of return to original weight: 32 days
[3]
  IC50: 24.7 µM
